Molecular target: T1, HMG-CoA reductase (Homo sapiens, UniProt P04035)
T1 construct: oxidation of NADPH by the catalytic subunit of HMGR in the presence of the substrate HMG-CoA; purchased Sigma-Aldrich CS1090 (kit); H8789 (HMG-CoA reductase)
T1 sequence (P04035 340-888 limits assumed): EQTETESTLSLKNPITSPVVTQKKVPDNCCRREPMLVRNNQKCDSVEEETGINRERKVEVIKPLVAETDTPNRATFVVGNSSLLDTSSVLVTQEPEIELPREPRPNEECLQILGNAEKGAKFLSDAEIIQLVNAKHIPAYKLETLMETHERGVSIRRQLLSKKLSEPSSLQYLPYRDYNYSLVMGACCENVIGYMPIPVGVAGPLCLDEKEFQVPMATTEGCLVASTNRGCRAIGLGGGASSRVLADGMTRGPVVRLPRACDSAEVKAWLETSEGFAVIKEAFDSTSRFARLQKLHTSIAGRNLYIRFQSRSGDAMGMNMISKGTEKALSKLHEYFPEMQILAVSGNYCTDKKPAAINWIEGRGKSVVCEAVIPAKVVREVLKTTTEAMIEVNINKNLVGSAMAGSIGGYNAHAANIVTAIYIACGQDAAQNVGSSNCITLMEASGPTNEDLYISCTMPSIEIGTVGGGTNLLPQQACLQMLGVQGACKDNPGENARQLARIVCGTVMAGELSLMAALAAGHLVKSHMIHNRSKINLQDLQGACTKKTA
Experiment: HMG-CoA Reductase assay kit (spectrophotometric NADPH absorbance at 340 nm)
Type: biochemical
Conditions: NADPH and HMG-CoA both 200 μM, inhibitor concentrations varied from 0 nM to 50 nM, 37° C.
Experimental: All assays were carried out in a reaction buffer containing […] KxPO4 at pH 7.2, 1 mM EDTA, 500 mM KCl and 1 mg/ml BSA. The concentrations of NADPH and HMG-CoA were both 200 μM. […] Absorbance readings were then taken every 20 seconds for 600 seconds. […] After these were identified, assays were carried out varying their concentrations from 0 nM to 50 nM allowing IC50 values to be calculated.
This is illustrated in the following reaction scheme:
HMG-CoA+2NADPH+2H^+→mevalonate+2NADP^++CoA-SH
Add a buffer to all samples. • b. […] Add the reconstituted NADPH to all samples. • d. Add Substrate Solution (HMG-CoA) to all samples. • e. […] Mix the samples thoroughly.
3. The kinetics programme was started immediately.

| Structure (SMILES) | IC50 [nM] |
| --- | --- |
| CC(C)c1c(C(=O)Nc2ccccc2)c(-c2ccccc2)c(-c2ccc(F)cc2)n1CC[C@@H]1C[C@@H](O)CC(=O)O1 | 3 |
| COC1C[C@H](OC(=O)c2cccnc2)C[C@@H](CCn2c(-c3ccc(F)cc3)c(-c3ccccc3)c(C(=O)Nc3ccccc3)c2C(C)C)O1 (some centres unmarked) | < 1 |
| CCCOC1C[C@H](O)C[C@@H](CCn2c(-c3ccc(F)cc3)c(-c3ccccc3)c(C(=O)Nc3ccccc3)c2C(C)C)O1 (some centres unmarked) | < 1 |
| CC(C)c1c(C(=O)Nc2ccccc2)c(-c2ccccc2)c(-c2ccc(F)cc2)n1CC[C@@H]1C[C@@H](O)CC(OC2CCCCC2)O1 (some centres unmarked) | < 1 |
| CC(C)OC1C[C@H](OCc2ccccc2)C[C@@H](CCn2c(-c3ccc(F)cc3)c(-c3ccccc3)c(C(=O)Nc3ccccc3)c2C(C)C)O1 (some centres unmarked) | 4 |
| CC(C)c1c(C(=O)Nc2ccccc2)c(-c2ccccc2)c(-c2ccc(F)cc2)n1CC[C@@H]1C[C@@H](OCc2ccccc2)CC(OC(C)(C)C)O1 (some centres unmarked) | 3 |
| C=CCOC1C[C@H](OCc2ccccc2)C[C@@H](CCn2c(-c3ccc(F)cc3)c(-c3ccccc3)c(C(=O)Nc3ccccc3)c2C(C)C)O1 (some centres unmarked) | 1 |
| COc1ccc(OC2C[C@H](O)C[C@@H](CCn3c(-c4ccc(F)cc4)c(-c4ccccc4)c(C(=O)Nc4ccccc4)c3C(C)C)O2)c(OC)c1 (some centres unmarked) | < 1 |

Reference: patent US20110319626A1 (BRADFORD PHARMA LIMITED, priority 2009, published 2011)
